The source of these data is patent publication US20150119327A1, “DRUG SCREENING PLATFORM FOR RETT SYNDROME” (THE REGENTS OF THE UNIVERSITY OF CALIFORNIA, priority 2012, published 2015).

One assay addresses T1, TRPC6 (Homo sapiens, UniProt Q9Y210).
T1 sequence (Q9Y210 1-931): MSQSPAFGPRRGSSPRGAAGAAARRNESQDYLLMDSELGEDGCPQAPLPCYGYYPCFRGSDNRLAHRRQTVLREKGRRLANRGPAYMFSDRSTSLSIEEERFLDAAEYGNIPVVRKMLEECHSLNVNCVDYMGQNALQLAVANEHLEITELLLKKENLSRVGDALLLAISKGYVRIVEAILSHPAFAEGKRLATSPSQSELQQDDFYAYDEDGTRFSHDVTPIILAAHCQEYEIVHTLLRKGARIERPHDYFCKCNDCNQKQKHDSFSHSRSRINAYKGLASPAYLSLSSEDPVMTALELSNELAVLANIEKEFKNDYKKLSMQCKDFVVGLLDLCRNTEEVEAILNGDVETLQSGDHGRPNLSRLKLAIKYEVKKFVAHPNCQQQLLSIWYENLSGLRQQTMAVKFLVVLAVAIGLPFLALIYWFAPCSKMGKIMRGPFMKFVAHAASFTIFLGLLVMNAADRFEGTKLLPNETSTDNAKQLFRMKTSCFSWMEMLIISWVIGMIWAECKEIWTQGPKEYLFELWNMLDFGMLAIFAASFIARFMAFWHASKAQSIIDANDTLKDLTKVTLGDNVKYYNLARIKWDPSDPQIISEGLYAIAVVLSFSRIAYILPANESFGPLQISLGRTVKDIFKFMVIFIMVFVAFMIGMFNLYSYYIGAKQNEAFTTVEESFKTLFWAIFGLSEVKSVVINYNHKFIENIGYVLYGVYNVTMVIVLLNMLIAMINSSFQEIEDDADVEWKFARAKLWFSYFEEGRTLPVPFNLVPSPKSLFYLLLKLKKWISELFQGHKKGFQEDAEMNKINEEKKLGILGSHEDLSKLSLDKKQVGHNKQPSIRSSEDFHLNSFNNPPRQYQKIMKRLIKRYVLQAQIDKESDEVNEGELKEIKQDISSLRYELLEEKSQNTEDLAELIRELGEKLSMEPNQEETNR
The following applies: cited from earlier work.

A further assay has as its system Na^+ current. In kind it is cell-based, human.
The test system of the next assay is TRPC6-mutant neurons. Kind of assay: VGLUT1 puncta / glutamatergic synapse number in TRPC6-mutant neurons (rescue). In kind it is cell-based, human. The following applies: 10 ηg/mL for two weeks. Here is the method:
Neuronal tracing was performed on neurons for which that the shortest dendrite was at least three-times longer than the cell soma diameter, using a semi-automatic ImageJ plug-in (NeuroJ). Spines and VGLUT1 puncta were quantified after three-dimensional reconstruction of z-stack confocal images. Only neurons with spines were scored. Pictures were taken randomly for each individual and from two different experiments, using at least two different clones. Quantification was done blindly to the genotype of the cells. All experiments were performed with independent clones and different controls. For the rescue experiments, 10 ηg/mL of IGF1 (Peprotech) was added to neuronal cultures for 2 weeks.

Assay [1] concerns human neurons. Put plainly: Synapse quantification by Odyssey in-cell western in 96- or 24-well plates. In kind it is cell-based. The conditions noted are these: preliminary data. From the text: Fibroblasts from patients are reprogrammed to a pluripotent state and further differentiated into neuro progenitor cells (NPCs). These NPCs can be expanded in appropriated culture conditions and, under the right signals, induced to differentiated into postmitotic neurons (see schematic; FIG. 11). Several adjustments were done on the neuronal differentiation protocol, reducing by half the time needed to generate neurons from NPCs. Such adjustments include specific factors and cell manipulations at different stages of the protocol. At this stage, disease neurons can reveal a phenotype that is related to the mutations on the MeCP2 gene. We focused on synapse quantification. Instead of manual synapse counting, we are using an Odyssey machine that can estimate the number of synapses by detecting specific wavelengths in a 96- or 24-well plates (see FIG. 11). […] Alternatively, we are using specific synaptic tools to visualize synaptogeneses in real time that could be detected by any time-lapse fluorescence microscope.

Another assay has as its system RTT-like symptoms. The conditions noted are these: mouse model; cited from earlier work.
For assay [2], the system named is human neurons. The following applies: cited from earlier work.
Another assay deals with K^+ current. Kind of assay: Whole-cell patch clamp recording of K+ current in iPSC-derived neuron. The following applies: 20 mM. In kind it is cell-based, human. How it is done:
Whole-cell patch clamp recordings were performed from cells cultured in the absence of astrocytes after approximately 6 weeks of differentiation. Before recordings, the growth media was removed and replaced with a bath solution comprised of (in mM): 130 NaCl, 3 KCl, 1 CaCl2, 1 MgCl2, HEPES, and 10 glucose (pH 7.4) at room temperature (22-24° C.). Electrodes for whole cell recording were pulled on a Flaming/Brown micropipette puller (Model P-87, Sutter Instrument, Novato, Calif.) from filamented borosilicate capillary glass (1.2 mm OD, 0.69 mm ID, World Precision Instruments, Sarasota, Fla.). The electrodes were fire-polished, and resistances were typically 2-5 MΩ for voltage-clamp experiments and 7-9 MΩ for current-clamp experiments. The pipette solution contained (in mM): 138 KCl, 0.2 CaCl2, 1 MgCl2, 10 HEPES (Na^+ salt), and 10 EGTA, (pH 7.4). The osmolarity of all solutions was adjusted to 290 mOsM. All chemicals were purchased from Sigma-Aldrich (St. Louis, Mo.) except MgCl2 (J.T. Baker, Phillipsburg, N.J.). Current traces in voltage clamp were leak-subtracted. Liquid junction potentials were nulled for each individual cell with the Axopatch 1C amplifier (Molecular Devises, Sunnyvale, Calif.).

`O=C(O)c1ccccc1Nc1cccc(C(F)(F)F)c1` [FFA, flufenamic acid]: the “currents through TRPC6 channel” value at TRPC6 is “increases the amplitude”.
Consider `NC1=N[C@H](O)[C@H]2[C@H]3O[C@]4(O)O[C@@H]([C@@H](O)[C@@]2(N1)[C@@H]4O)[C@]3(O)CO` [Tetrodotoxin (TTX), Tetrodotoxin], for which the “Na^+ current” value with Na^+ current was “blocked”.
For the compound “IGF-1: Insulin-like growth factor 1 (IGF-1), also referred to as somatomedin C”, the glutamatergic synapse number entry with TRPC6-mutant neurons was “increase”. The “synapse number estimate (Odyssey), response to drug” value in the assay with human neurons [1] is “small alterations”. Moreover, the RTT-like symptoms entry in the assay with RTT-like symptoms is given as “reversal”. Moreover, in the assay on human neurons [2], the RTT-like symptoms entry is on record as “reversal” and the synapse number entry is given as “increase”.
Consider `CC[N+](CC)(CC)CC` [tetraethalammonium (TEA), tetraethalammonium], for which the “K^+ current” value in the assay with K^+ current is recorded as “blocked”.
Regarding `CC(C)=CCC[C@]1(C)[C@@H](CC=C(C)C)C[C@@]2(CC=C(C)C)C(=O)[C@]1(C(=O)C(C)C)C(=O)C(CC=C(C)C)=C2O` [Hyperforin, hyperforin], the TRPC6 activation entry at TRPC6 was “specifically activates”.
